Where two headings read alike, the source gives them in different places.

One test deals with HBV. In words: HBV infection in HepG2-NTCP cells (HBeAg AlphaLISA in supernatants). The class given is cell-based. The note with it: Hepatitis B virus, 192 h. The essentials: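 HepG2-NTCP A3 cells were pre-incubated 2 h with 3-fold serially diluted compounds, then infected with HBV at 2000 GE/cell with 4% PEG (0.5% DMSO final). After washing on day 1, cells stayed in 2.5% DMSO medium; supernatant HBeAg measured by AlphaLISA on day 8, EC50 versus DMSO controls.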

Test [1] relates to HDV. Briefly: HDV infection in primary human hepatocytes (PHHs) and RNA quantification (RT-qPCR). The class given is cell-based. Conditions: Hepatocyte, 192 h, HDV infection of primary human hepatocytes, viral RNA at day 8 post infection. The text has this: Primary human hepatocytes (Thermo Fisher Scientific) were thawed in Williams E Medium with CM3000 supplement pack (Thermo Fisher Scientific) and seeded at 70,000 cells/well on collagen-coated 96-well plate. Six hours post-seeding, cell medium was changed to Williams E Medium with CM4000 cell maintenance supplement pack for further culture (Thermo Fisher Scientific). HDV virus collected from the supernatants of HuH7-END cells was purified in the presence of 6% polyethylene glycol (PEG). Viral titer was then quantified by RT-qPCR using HDV specific primers against a reference standard. On the day of infection, compounds were 4-fold serially diluted in DMSO and pre-incubated with PHHs for two hours before infecting with 100 GE/cell of HDV in 4% PEG. On day one post infection, HDV-containing media was aspirated, cells were washed once with PBS and then maintained in 2.5% DMSO containing media for the remainder of the assay. Viral RNA was isolated using RNeasy kits at day 8 post infection and reverse transcribed into cDNA using High-Capacity RNA-to-cDNA Kit. Relative HDV gene expression was quantified by RT-qPCR after normalization to expression of a housekeeping gene. Irrespective of readout, compound concentrations that reduce viral RNA by 50% relative to DMSO controls (EC50) are reported. EC50 ranges are as follows: A<0.1 μM; B 0.1-1 μM; C>1 μM.
For orientation: Quantitative PCR measures a nucleic acid by following its amplification.

The target of a further test is T1, NTCP (Homo sapiens, UniProt Q14973).
T1 construct: expressed in transfected cells; host or cells: HepG2-NTCP (clone A3, kept under puromycin)
T1 sequence (Q14973 1-349): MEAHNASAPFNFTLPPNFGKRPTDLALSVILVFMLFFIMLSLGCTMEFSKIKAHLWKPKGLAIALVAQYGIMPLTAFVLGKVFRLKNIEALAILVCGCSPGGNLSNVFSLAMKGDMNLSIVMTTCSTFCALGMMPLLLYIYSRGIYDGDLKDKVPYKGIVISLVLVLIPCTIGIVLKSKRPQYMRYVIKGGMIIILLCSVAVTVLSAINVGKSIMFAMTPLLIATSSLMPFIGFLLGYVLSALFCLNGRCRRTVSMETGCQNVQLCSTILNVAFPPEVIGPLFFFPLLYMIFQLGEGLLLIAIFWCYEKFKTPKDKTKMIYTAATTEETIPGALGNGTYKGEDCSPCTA
In words: HepG2-NTCP preS1 binding competition assay (FITC-labeled myristoylated preS1 peptide). The note with it: HepG2-NTCP cells; competition with FITC-labeled preS1 peptide. As to the method: HepG2-NTCP preS1 Binding Competition Assay
Myristoylated preS1 peptide (2-48 aa) conjugated to a C-terminal FITC tag was synthesized to evaluate preS1 binding to NTCP-expressing cells. HepG2-NTCP cells seeded in 384-wells were pre-treated with compounds for 2 hours prior to the addition of FITC-labeled preS1 peptide. After co-incubation for 30 minutes, unbound FITC-preS1 peptide was washed twice with PBS, and the fluorescence of preS1-FITC bound to cell surface was detected by Envision plate reader. EC50 ranges are as follows: A<0.1 μM; B 0.1-1 μM; C>1 μM.

Test [2] has as its system HDV. In words: HDV infection in HepG2-NTCP cells and RNA quantification (RT-qPCR). Conditions: 288 h; HDV infection of HepG2-NTCP cells; viral RNA by RT-qPCR at day 12 post infection; read-out: Cellular EC50. It is filed as cell-based. As to the method: HDV virus collected from the supernatants of HuH7-END cells was purified in the presence of 6% polyethylene glycol (PEG). Viral titer was then quantified by RT-qPCR using HDV specific primers against a reference standard. For HDV infection, HepG2-NTCP cells were seeded in 96-well plates at 60,000 cells/well. On the day of infection, compounds were 4-fold serially diluted in DMSO and pre-incubated with HepG2-NTCP cells for two hours before infecting with 800 GE/cell of HDV in 4% PEG. On day one post infection, HDV-containing media was aspirated, cells were washed once with PBS and then maintained in 2.5% DMSO containing media for the remainder of the assay. Viral RNA was isolated using RNeasy kits (Qiagen) at day 12 post infection and reverse transcribed into cDNA using High-Capacity RNA-to-cDNA Kit (Thermo Fisher). Relative HDV gene expression was quantified by RT-qPCR after normalization to expression of a housekeeping gene. Irrespective of readout, compound concentrations that reduce viral RNA by 50% relative to DMSO controls (EC50) are reported. EC50 ranges are as follows: A<0.1 μM; B 0.1-1 μM; C>1 μM.

Where [3] appears, read: HBV infection of HepG2-NTCP cells, HBeAg in supernatants at day 8 post infection, read-out: Cellular EC50.
The mark [4] stands for this setting: Donor 1, read-out: Cellular EC50 (μM) Donor 1.
The mark [5] stands for this setting: Donor 2, read-out: Cellular EC50 (μM) Donor 2.

One may read the EC50 as the concentration needed to bring the measured effect to its halfway point. `Cc1cc(-c2cc3c(cc2OCc2ccsc2)N(c2ccccc2)C[C@@H](C2CCCCC2)N(C)S3(=O)=O)sc1C(=O)O` [Example 514]: the concentration giving a half-maximal response (EC50) with HBV (setting [3]), in the test with HDV [1] (setting [4]) and in the test with HDV [1] (setting [5]) was under 0.1 µM each time.

`CN1[C@H](C2CCCCC2)CN(c2ccccc2)c2cc(F)c(-c3cc(F)c(C(=O)O)s3)cc2S1(=O)=O` [Example 128, (R)-5-(3-cyclohexyl-7-fluoro-2-methyl-1,1-dioxido-5-phenyl-2,3,4,5-tetrahydrobenzo[f][1,2,5]thiadiazepin-8-yl)-3-fluorothiophene-2-carboxylic acid]: the EC50 with HBV (setting [3]) and in the test on HDV [1] (setting [5]) was under 0.1 µM each time.

Turning to `CN1[C@H](C2CCCCC2)CN(c2ccccc2)c2cc(OC3CC3)c(-c3ccc(F)c(C(=O)O)c3)cc2S1(=O)=O` [Example 372], the concentration giving a half-maximal response (EC50) with HBV (setting [3]) and in the test on HDV [1] (setting [4]) was under 0.1 µM each time.

As for `Cc1cc(-c2cc3c(cc2F)N(c2ccccc2)C[C@@H](C2CCCCC2)N(C)S3(=O)=O)sc1C(=O)O` [Example 127, (R)-5-(3-cyclohexyl-7-fluoro-2-methyl-1,1-dioxido-5-phenyl-2,3,4,5-tetrahydrobenzo[f][1,2,5]thiadiazepin-8-yl)-3-methylthiophene-2-carboxylic acid], the EC50 with HBV (setting [3]) is under 0.1 µM; with HDV [1] (setting [5]), under 0.1 µM; at NTCP it was under 100 nM.

On to `CN1[C@H](C2CCCCC2)CN(c2ccccc2)c2cc(Cl)c(-c3cc(F)c(C(=O)O)s3)cc2S1(=O)=O` [Example 116, (R)-5-(7-chloro-3-cyclohexyl-2-methyl-1,1-dioxido-5-phenyl-2,3,4,5-tetrahydrobenzo[f][1,2,5]thiadiazepin-8-yl)-3-fluorothiophene-2-carboxylic acid], for which the 50% effective concentration (EC50) is under 0.1 µM in the test with HBV (setting [3]), under 100 nM in the test on HDV [2], under 0.1 µM with HDV [1] (setting [4]) and under 100 nM on NTCP.

In the case of `Cc1cc(-c2cc3c(cc2Cl)N(c2ccccc2)C[C@@H](C2CCCCC2)N(C)S3(=O)=O)sc1C(=O)O` [Example 126, (R)-5-(7-chloro-3-cyclohexyl-2-methyl-1,1-dioxido-5-phenyl-2,3,4,5-tetrahydrobenzo[f][1,2,5]thiadiazepin-8-yl)-3-methylthiophene-2-carboxylic acid], the values for the 50% effective concentration (EC50) in the test on HBV (setting [3]) and with HDV [2] were under 0.1 µM and under 100 nM, respectively.

On to `CCCCCCCOc1cc2c(cc1-c1ccc(F)c(C(=O)O)c1)S(=O)(=O)N(C)[C@H](C1CCCCC1)CN2c1ccccc1` [Example 353], for which the concentration giving a half-maximal response (EC50) in the test on HBV (setting [3]) and in the test on HDV [1] (setting [4]) was under 0.1 µM in each case.

Regarding `CN1[C@H](C2CCCCC2)CN(c2ccccc2)c2cc(OC3CCC3)c(-c3ccc(F)c(C(=O)O)c3)cc2S1(=O)=O` [Example 376], the EC50 in the test on HBV (setting [3]) and with HDV [1] (setting [4]) was under 0.1 µM in each case.

Consider `CN1[C@H](C2CCCCC2)CN(c2ccccc2)c2cc(Cl)c(-c3ccc(F)c(C(=O)O)c3)cc2S1(=O)=O` [Example 25, (R)-5-(7-chloro-3-cyclohexyl-2-methyl-1,1-dioxido-5-phenyl-2,3,4,5-tetrahydrobenzo[f][1,2,5]thiadiazepin-8-yl)-2-fluorobenzoic acid], for which the EC50 is under 0.1 µM in the test on HBV (setting [3]), under 100 nM in the test with HDV [2], under 0.1 µM in the test on HDV [1] (setting [4]) and 0.1 to 1 µM with HDV [1] (setting [5]).

Consider `COc1ccccc1N1C[C@@H](C2CCCCC2)N(C)S(=O)(=O)c2cc(-c3ccc(F)c(C(=O)O)c3)c(Cl)cc21` [Example 304, (R)-5-(7-chloro-3-cyclohexyl-5-(2-methoxyphenyl)-2-methyl-1,1-dioxido-2,3,4,5-tetrahydrobenzo[f][1,2,5]thiadiazepin-8-yl)-2-fluorobenzoic acid], for which the values for the EC50 with HBV (read-out: Cellular EC50 (μM)) and on NTCP were over 1 µM and over 1000 nM, respectively.

For `CN1[C@H](C2CCCCC2)CN(c2ccccc2)c2cc(Cl)c(-c3ccc(N)c(C(=O)O)c3)cc2S1(=O)=O` [Example 157, (R)-2-amino-5-(7-chloro-3-cyclohexyl-2-methyl-1,1-dioxido-5-phenyl-2,3,4,5-tetrahydrobenzo[f][1,2,5]thiadiazepin-8-yl)benzoic acid], the concentration giving a half-maximal response (EC50) in the test on HBV (setting [3]) was 0.1 to 1 µM; on NTCP, 100 to 1000 nM.

Consider `CCCCCCS(=O)(=O)Nc1ccc(-c2cc3c(cc2Cl)N(c2ccccc2)C[C@@H](C2CCCCC2)N(C)S3(=O)=O)cc1C(=O)O` [Example 273], for which the 50% effective concentration (EC50) in the test on HBV (setting [3]) is under 0.1 µM; at NTCP it was under 100 nM.

On to `CN1[C@H](C2CCCCC2)CN(c2ccccc2)c2cc(OCc3ccsc3)c(-c3ccc(F)c(C(=O)O)c3)cc2S1(=O)=O` [Example 336], for which the concentration for a half-maximal effect (EC50) with HBV (setting [3]) and with HDV [1] (setting [4]) was under 0.1 µM in each case.

These data come from patent publication US20240368096A1 (Enanta Pharmaceuticals, Inc., priority 2022, published 2024).
